From publication PMC11121837, “Impact of Nitric Oxide-Release Kinetics on Antifungal Activity” (Journal of Fungi, 2024)
≈ marks a conversion by molar mass, not a printed value. Where “and” joins values, the source holds several entries; their conditions need not be identical. Equal entries are not always repeated. Where two headings read alike, the source gives them in different places. Blank lines part the entries; values can stand above or below the compound they belong to.

Columns and labels:
Candida albicans = assay: Susceptibility assay (MIC, broth microdilution, CLSI M27); type: cell-based; settings: for MIC: 24 h
C. auris (MYA-5001) = type: cell-based, Candida auris; settings: C. auris; daily exposure to 1/10th of MIC; by passage 5
Candida auris = assay: Susceptibility assay (MIC, broth microdilution, CLSI M27); type: cell-based; settings: for MIC: Candidozyma auris, 24 h; for resistance of strain to antifungal (breakpoint): C. auris ATCC MYA-5001, CLSI/EUCAST breakpoints
Cryptococcus neoformans = assay: as above; type: cell-based; settings: for MIC: Cryptococcus neoformans, ATCC208821, 72 h, 72 h
[1] = tested on: Aspergillus fumigatus spores; assay: Susceptibility assay for sporulating fungi (MIC, EUCAST E.Def.9.4); type: cell-based; settings: for MIC: ATCC1022, Aspergillus fumigatus ATCC 1022 spores
[2] = tested on: C. neoformans (ATCC208821); type: cell-based, Cryptococcus neoformans; settings: C. neoformans; daily exposure to 1/10th of MIC; by passage 5
[3] = Cryptococcus neoformans ATCC 208821
[4] = Cryptococcus neoformans ATCC MYA-4566
[5] = Cryptococcus neoformans ATCC MYA-4567

SMILES: Nc1nc(=O)[nH]cc1F [5-fluorocytosine, reference compound]
MIC (Candida albicans; Candida albicans ATCC MYA-2876): 0.125 µg/mL (≈ 0.968 µM)
increase of MIC and MFC values after serial passaging (C. auris (MYA-5001)): over 256 fold
MIC (Candida auris; Candida auris ATCC MYA-5001): 2 µg/mL (≈ 15.5 µM)
MIC (Cryptococcus neoformans; [3]): 4 µg/mL (≈ 31 µM)
MIC [1]: > 62.5 µg/mL
increase of MIC and MFC values after serial passaging [2]: over 256 fold

SMILES: NCCNCCN [DETA, Diethylenetriamine, reference compound]
MIC of base scaffold (Candida albicans; Candida albicans ATCC 14053): > 20000 µg/mL
MIC of base scaffold (Candida albicans; Candida albicans ATCC 18804): > 20000 µg/mL
MIC of base scaffold (Candida albicans; Candida albicans ATCC MYA-2876): > 20000 µg/mL
MIC of base scaffold (Candida auris; Candida auris ATCC MYA-5000): > 20000 µg/mL
MIC of base scaffold (Candida auris; Candida auris ATCC MYA-5001): > 20000 µg/mL
MIC of base scaffold (Candida auris; Candida auris ATCC MYA-5003): > 20000 µg/mL
MIC of base scaffold (Cryptococcus neoformans; [3]): > 20000 µg/mL
MIC of base scaffold (Cryptococcus neoformans; [4]): > 20000 µg/mL
MIC of base scaffold (Cryptococcus neoformans; [5]): 10000 µg/mL

SMILES: NCCCNCCCN [DPTA, bis(3-aminopropyl) amine, reference compound]
MIC of base scaffold (Candida albicans): 20000 µg/mL
MIC of base scaffold (Candida auris): > 20000 µg/mL
MIC of base scaffold (Cryptococcus neoformans): 5000 µg/mL and 2500 µg/mL

SMILES: NCCCNCCCCNCCCN [SPER, spermine, reference compound]
MIC of base scaffold (Candida albicans; Candida albicans ATCC 14053): 20000 µg/mL
MIC of base scaffold (Candida albicans; Candida albicans ATCC 18804): > 20000 µg/mL
MIC of base scaffold (Candida albicans; Candida albicans ATCC MYA-2876): > 20000 µg/mL
MIC of base scaffold (Candida auris; Candida auris ATCC MYA-5000): > 20000 µg/mL
MIC of base scaffold (Candida auris; Candida auris ATCC MYA-5001): > 20000 µg/mL
MIC of base scaffold (Candida auris; Candida auris ATCC MYA-5003): > 20000 µg/mL
MIC of base scaffold (Cryptococcus neoformans; [3]): 5000 µg/mL
MIC of base scaffold (Cryptococcus neoformans; [4]): 2500 µg/mL
MIC of base scaffold (Cryptococcus neoformans; [5]): 2500 µg/mL

SMILES: C[C@@H]1[C@H](O)[C@@H](C)/C=C/C=C/C=C/C=C/C=C/C=C/C=C/[C@H](O[C@@H]2O[C@H](C)[C@@H](O)[C@H](N)[C@@H]2O)C[C@@H]2O[C@](O)(C[C@@H](O)C[C@@H](O)[C@H](O)CC[C@@H](O)C[C@@H](O)CC(=O)O[C@H]1C)C[C@H](O)[C@H]2C(=O)O [amphotericin B, reference compound]
MIC (Candida albicans; Candida albicans ATCC MYA-2876): 0.25 µg/mL (≈ 0.271 µM)
MIC (Candida auris; Candida auris ATCC MYA-5001): 0.5 µg/mL (≈ 0.541 µM)
MIC (Cryptococcus neoformans; [3]): 0.195 µg/mL (≈ 0.211 µM)
resistance of strain to antifungal (breakpoint) ([1]; A. fumigatus ATCC 1022, CLSI/EUCAST breakpoints): resistant
MIC [1]: 2.5 µg/mL (≈ 2.71 µM)

Second part, led by results:

MIC (Candida albicans; Candida albicans ATCC MYA-2876): > 4000 µg/mL
MIC (Candida auris; Candida auris ATCC MYA-5001): > 4000 µg/mL
MIC (Cryptococcus neoformans; [3]): 0.3 µg/mL (≈ 0.945 µM)
MIC [1]: > 500 µg/mL
SMILES: CN(Cc1ccc(C(C)(C)C)cc1)Cc1cccc2ccccc12 [butenafine, reference compound]

MIC (Candida albicans; Candida albicans ATCC MYA-2876): 0.25 µg/mL (≈ 0.229 µM)
MIC (Candida auris; Candida auris ATCC MYA-5001): > 32 µg/mL
MIC (Cryptococcus neoformans; [3]): 32 µg/mL (≈ 29.3 µM)
MIC [1]: 125 µg/mL (≈ 114 µM)
SMILES: CC[C@H](C)C[C@H](C)CCCCCCCCC(=O)N[C@H]1C[C@@H](O)[C@@H](NCCN)NC(=O)[C@@H]2[C@@H](O)CCN2C(=O)[C@H]([C@H](O)CCN)NC(=O)[C@H]([C@H](O)[C@@H](O)c2ccc(O)cc2)NC(=O)[C@@H]2C[C@@H](O)CN2C(=O)[C@H]([C@@H](C)O)NC1=O [caspofungin, reference compound]
resistance of strain to antifungal (breakpoint) (Candida auris): resistant

MIC (Candida albicans; Candida albicans ATCC MYA-2876): > 32 µg/mL
MIC (Candida auris; Candida auris ATCC MYA-5001): > 32 µg/mL
MIC (Cryptococcus neoformans; [3]): 4 µg/mL (≈ 13.1 µM)
MIC [1]: > 125 µg/mL
SMILES: OC(Cn1cncn1)(Cn1cncn1)c1ccc(F)cc1F [fluconazole, reference compound]
resistance of strain to antifungal (breakpoint) (Candida albicans; C. albicans ATCC MYA-2876, CLSI/EUCAST breakpoints): resistant
resistance of strain to antifungal (breakpoint) (Candida auris): resistant

MIC (Candida albicans; Candida albicans ATCC MYA-2876): 60 µg/mL (≈ 144 µM)
MIC (Candida auris; Candida auris ATCC MYA-5001): 4 µg/mL (≈ 9.61 µM)
MIC (Cryptococcus neoformans; [3]): 0.5 µg/mL (≈ 1.2 µM)
MIC [1]: > 500 µg/mL
SMILES: Clc1ccc(COC(Cn2ccnc2)c2ccc(Cl)cc2Cl)c(Cl)c1 (stereo not drawn) [miconazole, reference compound]
